Test results as given in paper PMC8662641, “Site-Specific Labeling of Endogenous Proteins Using CoLDR Chemistry” (Journal of the American Chemical Society, 2021).

Columns and labels:
BTK = BTK (Homo sapiens, UniProt Q06187); set-up: BTK kinase domain was expressed and purified as previously reported; made in house; method as in Reddi et al., J. Am. Chem. Soc. 2021, 143 (13), 4979–4992; details: ref Reddi et al., J. Am. Chem. Soc. 2021, 143 (13), 4979–4992; cited from earlier work
BTK-1h = biological target: T1, BTK-1h (Homo sapiens, UniProt Q06187); assay: High-throughput screening with 1h-labeled BTK; type: binding
T1 construct: The BTK kinase domain was diluted to 2 μM in the buffer, and 2 μM 1h was added; made in house
T1 sequence (Q06187 402-655): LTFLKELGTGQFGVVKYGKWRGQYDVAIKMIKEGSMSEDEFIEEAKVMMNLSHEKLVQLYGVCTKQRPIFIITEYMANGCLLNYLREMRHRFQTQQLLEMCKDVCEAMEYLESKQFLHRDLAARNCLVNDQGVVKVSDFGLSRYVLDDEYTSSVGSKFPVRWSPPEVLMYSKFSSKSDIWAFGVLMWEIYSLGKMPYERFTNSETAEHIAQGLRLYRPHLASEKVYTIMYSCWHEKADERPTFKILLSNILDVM
Method: The collection was composed of BTK binding compounds obtained in our previous luminescence screen[37] (Data set S2). […] The resulting BTK-1h (50 μL) was added to the inhibitors.

[1] = Dataset S2A, 200 μM compound, BTK-1h, 32 °C, 10 min

BTK, sequence (Q06187 402-655 limits assumed): as the sequence (Q06187 402-655) above

Row | FI (650)/FI (620) (BTK-1h; [1]) | FI (BTK-1h)/FI (BTK-1h+Inhibitor) at 620 nm (BTK-1h; [1]) | FI (BTK-1h)/FI (BTK-1h+Inhibitor) at 620 nm (BTK-1h; Dataset S2B, 200 μM inhibitor added to BTK-1h (2 μm)) | Structure (SMILES) | BTK Inhibition reported in luminescence assay* (BTK)
1 | 0.7724 | 1.097 |  | CN[C@H]1C(=O)N[C@@H]2Cc3ccc(cc3)Oc3cc4cc(c3O[C@@H]3O[C@H](C(=O)O)[C@@H](O)[C@H](O)[C@H]3NC(=O)CCCCCCCCC(C)C)Oc3ccc(cc3Cl)[C@@H](O)[C@@H]3NC(=O)[C@H](NC(=O)[C@@H]4NC(=O)[C@@H](NC2=O)c2cc(cc(O)c2Cl)Oc2cc1ccc2O)c1ccc(O)c(c1)-c1c(O[C@H]2O[C@H](CO)[C@@H](O)[C@H](O)[C@@H]2O)cc(O)cc1[C@@H](C(=O)NCCCN(C)C)NC3=O [PCM-0215113-001] | 73.2
2 | 1.174 | 1.002 |  | Cl.N/C(=N\N=C\c1ccc(Cl)cc1)N/N=C/c1ccc(Cl)cc1 [PCM-0215125-001] | 77.8
3 | 0.5899 | 0.9902 |  | CCCCCCCCCCCCCCCC(=O)O[C@@H]1[C@@H](O)[C@@H](O)[C@@H]([C@H](NC(=O)[C@@H]2C[C@@H](CCC)CN2C)[C@H](C)Cl)O[C@@H]1SC.Cl [PCM-0215167-001] | 73.2
4 | 1.083 | 1.158 |  | COc1cc(N2CCC(N(C)C)CC2)ccc1Nc1ncc(Cl)c(Nc2ccccc2P(C)(C)=O)n1 [PCM-0215177-001] | 64.8
5 | 0.9898 | 1.025 |  | O=C(NC(NC(=S)Nc1ccc(F)c([N+](=O)[O-])c1)C(Cl)(Cl)Cl)C(c1ccccc1)c1ccccc1 (stereo not shown) [PCM-0215199-001] | 105.5
6 | 1.1509 | 1.028 |  | C=CC(=O)Nc1cccc(Nc2nc(Nc3ccc(NC4CN(CCF)C4)cc3OC)ncc2C(F)(F)F)c1 [PCM-0215208-001] | 91
7 | 1.364 | 1.2233 |  | C1=C/COCc2cc(ccc2OCCN2CCCC2)Nc2nccc(n2)-c2cccc(c2)COC/1 [PCM-0215268-001] | 71.7
8 | 1.877 | 1.327 |  | COc1cc(N2CCC(N3CCN(C)CC3)CC2)ccc1Nc1ncnc(Nc2ccccc2S(=O)(=O)C(C)C)n1 [PCM-0215273-001] | 89
9 | 1.111 | 1.004 |  | C=CC(=O)N1CCN(C(=O)CNc2cc(I)c(Cl)cc2O)CC1 [PCM-0215367-001] | 84.9
10 | 1.5507 | 1.003 |  | Cc1ccc(NC(=O)Nc2cc(C(F)(F)F)ccc2F)cc1Nc1ccc2c(c1)NC(=O)/C2=C\c1ccc[nH]1 [PCM-0215372-001] | 115.9
11 | 1.5356 | 1.156 |  | C[C@@H](Oc1ccc2[nH]nc(/C=C/c3cnn(CCO)c3)c2c1)c1c(Cl)cncc1Cl [PCM-0215376-001] | 101.4
12 | 1.4774 | 1.04 |  | CN1CCN(Cc2ccc(-c3cnc4[nH]cc(-c5ccc6[nH]ccc6c5)c4c3)cc2)CC1 [PCM-0215377-001] | 111
13 | 1.912 | 0.9002 |  | O=C(O)CSc1cc(NS(=O)(=O)c2ccc(Br)cc2)c2ccccc2c1O [PCM-0215378-001] | 51.7
14 | 1.014 | 1.145 |  | CN1CCN(Cc2ccc(NC(=O)Nc3ccc(Oc4cc(NC(=O)C5CC5)ncn4)cc3)cc2C(F)(F)F)CC1 [PCM-0215388-001] | 79.5
15 | 1.233 | 1.12 |  | CCS(=O)(=O)N1CCN(c2ccc(Nc3ncc(C(N)=O)c(NC4CC4)n3)cc2)CC1.Cl [PCM-0215389-001] | 85.5
16 | 0.8983 | 1.05 |  | COC(=O)N[C@H](C(=O)N1CC2(CC2)C[C@H]1c1ncc(-c2ccc3c(c2)C(F)(F)c2cc(-c4ccc5nc([C@@H]6[C@H]7CC[C@H](C7)N6C(=O)[C@@H](NC(=O)OC)C(C)C)[nH]c5c4)ccc2-3)[nH]1)C(C)C [PCM-0215396-001] | 74.9
17 | 1.18 | 1.008 |  | Cc1cc(N=Nc2ccc(S(=O)(=O)Nc3ccccn3)cc2)c(N)cc1O [PCM-0215414-001] | 76.4
18 | 1.023 | 1.082 |  | C=CC(=O)N1CCC(Oc2cc3c(Nc4ccc(Cl)c(Cl)c4F)ncnc3cc2OC)CC1 [PCM-0215416-001] | 119.3

Row | FI (650)/FI (620) (BTK-1h; [1]) | FI (BTK-1h)/FI (BTK-1h+Inhibitor) at 620 nm (BTK-1h; [1]) | FI (BTK-1h)/FI (BTK-1h+Inhibitor) at 620 nm (BTK-1h; Dataset S2B, 200 μM inhibitor added to BTK-1h (2 μm)) | Structure (SMILES) | BTK Inhibition reported in luminescence assay* (BTK)
19 | 0.9847 | 1.0465 |  | O=C1NC(=O)C(c2cnc3ccccn23)=C1c1cn2c3c(cc(F)cc13)CN(C(=O)N1CCCCC1)CC2 [PCM-0215438-001] | 80
20 | 1.009 | 1.056 |  | CC#CC(=O)Nc1ccc2ncnc(Nc3cccc(Br)c3)c2c1 [PCM-0215449-001] | 102.8
21 | 0.9726 | 1.02 |  | CCOC(=O)c1ccc(NC(=O)O[C@H]2[C@H](OC(=O)Nc3ccc4c(c3)OCO4)[C@@H](OC(=O)Nc3ccc4c(c3)OCO4)[C@@H](OC)O[C@@H]2CO)cc1 [PCM-0215463-001] | 98.1
22 | 1.101 | 1.031 |  | C=CC(=O)Nc1cc(Nc2nccc(-c3c[nH]c4ccccc34)n2)c(OC)cc1N(C)CCN(C)C [PCM-0215489-001] | 91.7
23 | 1.1367 | 1.0338 |  | Cc1c(C(=O)Nc2ccc(Oc3ccnc4[nH]cc(-c5ccccc5)c34)c(F)c2)c(=O)n(-c2ccc(F)cc2)n1C [PCM-0215493-001] | 95.9
24 | 1.043 | 1.041 |  | C=CC(=O)Nc1cccc(C)c1Nc1ncc2cc(-c3c(Cl)c(OC)cc(OC)c3Cl)ccc2n1 [PCM-0215508-001] | 100.4
25 | 1.221 | 1.15 |  | CN1CCN(Cc2ccc(Nc3ncc(Cl)c(Nc4ccccc4S(=O)(=O)N(C)C)n3)cc2)CC1 [PCM-0215510-001] | 67.2
26 | 1.013 | 1.019 |  | CC(=O)O/N=C1/C(c2c(O)[nH]c3cc(Br)ccc23)=Nc2ccccc21 [PCM-0215536-001] | 60.7
27 | 2.057 | 1.467 |  | Cc1noc(C)c1-c1ccc(-c2cc(C(N)=O)c(NC(N)=O)s2)c(O[C@H]2CCNC2)c1 [PCM-0215541-001, AZD3264] | 74.1
28 | 1.093 | 1.086 |  | NC(=O)c1cnc2[nH]ccc2c1NC1[C@@H]2CC3C[C@H]1CC(O)(C3)C2 (stereo partly shown) [PCM-0215550-001] | 94.5
29 | 0.9755 | 1.038 |  | CN1CCN(c2ccc(C(=O)Nc3n[nH]c4ccc(Cc5cc(F)cc(F)c5)cc34)c(NC3CCOCC3)c2)CC1 [PCM-0215551-001] | 102.8
30 | 1.019 | 1.0396 |  | COc1cccc(-n2c(=O)[nH]c3cc(Cl)n(-c4ccc(-c5cccc(OC)c5O)cc4)c3c2=O)c1 [PCM-0215555-001] | 99.3
31 | 1.072 | 1.041 |  | C=CC(=O)Nc1ccc(CN2C(=O)N(c3cc(OC)cc(OC)c3)Cc3cnc(Nc4ccc(N5CCN(C)CC5)cc4)nc32)cc1 [PCM-0215559-001] | 88.3
32 | 1.1215 | 1.062 |  | Cc1c[nH]c2nc(Nc3ccc(N4CCN(C)CC4)c(F)c3)nc(-c3cccc(CC#N)c3)c12 [PCM-0215633-001] | 92.4
33 | 1.491 | 1.033 |  | CC(=O)Nc1nc(-c2cccc(NS(=O)(=O)c3cccc4c(N(C)C)cccc34)c2)cs1 [PCM-0215679-001] | 97.3
34 | 1.281 | 1.027 |  | O=S(=O)([O-])c1ccc2cc(N=Nc3cc(S(=O)(=O)[O-])c4cccnc4c3O)ccc2c1.[Na+].[Na+] [PCM-0215685-001] | 54.1
35 | 0.9958 | 1.02 |  | O=C([O-])CCN1C(=O)/C(=C/c2ccc(-c3ccc([N+](=O)[O-])cc3)o2)SC1=S.[K+] [PCM-0215696-001] | 59.5
36 | 7.1 | 1.02 | 7.1 | O=[N+]([O-])c1ccc(Sc2cccc[n+]2[O-])c2nonc12 [PCM-0215705-001, NSC228155] | 73.4

Row | Structure (SMILES) | FI (650)/FI (620) (BTK-1h; [1]) | FI (BTK-1h)/FI (BTK-1h+Inhibitor) at 620 nm (BTK-1h; [1]) | FI (BTK-1h)/FI (BTK-1h+Inhibitor) at 620 nm (BTK-1h; Dataset S2B, 200 μM inhibitor added to BTK-1h (2 μm)) | BTK Inhibition reported in luminescence assay* (BTK)
37 | Cl[Te]1(Cl)(Cl)OCCO1.N [PCM-0215721-001] | 1.1548 | 1.038 |  | 98.6
